The record followed here is patent US11123337B2, “4-methylsulfonyl-substituted piperidine urea compounds” (MYOKARDIA, INC., priority 2015, dated 2021).

The target in this test is bovine cardiac myosin (Bos taurus, UniProt Q9BE39). The test can be described thus: Myosin activation assay (PK/LDH-coupled ATPase, bovine cardiac myofibrils). It counts as biochemical. The settings on record: AC20 = concentration at which total response is increased by twenty percent. The method, boiled down: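 Skinned bovine cardiac myofibrils (1 mg/mL) in PIPES/MgCl2 buffer pH 6.8 at free Ca2+ giving ~50% (pCa ~6) or <5% (pCa 10) activation, with 50 μM ATP and 3.3% DMSO. ATPase rate from NADH absorbance at 340 nm (PK/LDH coupling) over 15 min at ambient temperature. AC20/AC50 from a four-parameter fit of DMSO-normalised rates.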
Sequence of bovine cardiac myosin (Q9BE39 whole entry): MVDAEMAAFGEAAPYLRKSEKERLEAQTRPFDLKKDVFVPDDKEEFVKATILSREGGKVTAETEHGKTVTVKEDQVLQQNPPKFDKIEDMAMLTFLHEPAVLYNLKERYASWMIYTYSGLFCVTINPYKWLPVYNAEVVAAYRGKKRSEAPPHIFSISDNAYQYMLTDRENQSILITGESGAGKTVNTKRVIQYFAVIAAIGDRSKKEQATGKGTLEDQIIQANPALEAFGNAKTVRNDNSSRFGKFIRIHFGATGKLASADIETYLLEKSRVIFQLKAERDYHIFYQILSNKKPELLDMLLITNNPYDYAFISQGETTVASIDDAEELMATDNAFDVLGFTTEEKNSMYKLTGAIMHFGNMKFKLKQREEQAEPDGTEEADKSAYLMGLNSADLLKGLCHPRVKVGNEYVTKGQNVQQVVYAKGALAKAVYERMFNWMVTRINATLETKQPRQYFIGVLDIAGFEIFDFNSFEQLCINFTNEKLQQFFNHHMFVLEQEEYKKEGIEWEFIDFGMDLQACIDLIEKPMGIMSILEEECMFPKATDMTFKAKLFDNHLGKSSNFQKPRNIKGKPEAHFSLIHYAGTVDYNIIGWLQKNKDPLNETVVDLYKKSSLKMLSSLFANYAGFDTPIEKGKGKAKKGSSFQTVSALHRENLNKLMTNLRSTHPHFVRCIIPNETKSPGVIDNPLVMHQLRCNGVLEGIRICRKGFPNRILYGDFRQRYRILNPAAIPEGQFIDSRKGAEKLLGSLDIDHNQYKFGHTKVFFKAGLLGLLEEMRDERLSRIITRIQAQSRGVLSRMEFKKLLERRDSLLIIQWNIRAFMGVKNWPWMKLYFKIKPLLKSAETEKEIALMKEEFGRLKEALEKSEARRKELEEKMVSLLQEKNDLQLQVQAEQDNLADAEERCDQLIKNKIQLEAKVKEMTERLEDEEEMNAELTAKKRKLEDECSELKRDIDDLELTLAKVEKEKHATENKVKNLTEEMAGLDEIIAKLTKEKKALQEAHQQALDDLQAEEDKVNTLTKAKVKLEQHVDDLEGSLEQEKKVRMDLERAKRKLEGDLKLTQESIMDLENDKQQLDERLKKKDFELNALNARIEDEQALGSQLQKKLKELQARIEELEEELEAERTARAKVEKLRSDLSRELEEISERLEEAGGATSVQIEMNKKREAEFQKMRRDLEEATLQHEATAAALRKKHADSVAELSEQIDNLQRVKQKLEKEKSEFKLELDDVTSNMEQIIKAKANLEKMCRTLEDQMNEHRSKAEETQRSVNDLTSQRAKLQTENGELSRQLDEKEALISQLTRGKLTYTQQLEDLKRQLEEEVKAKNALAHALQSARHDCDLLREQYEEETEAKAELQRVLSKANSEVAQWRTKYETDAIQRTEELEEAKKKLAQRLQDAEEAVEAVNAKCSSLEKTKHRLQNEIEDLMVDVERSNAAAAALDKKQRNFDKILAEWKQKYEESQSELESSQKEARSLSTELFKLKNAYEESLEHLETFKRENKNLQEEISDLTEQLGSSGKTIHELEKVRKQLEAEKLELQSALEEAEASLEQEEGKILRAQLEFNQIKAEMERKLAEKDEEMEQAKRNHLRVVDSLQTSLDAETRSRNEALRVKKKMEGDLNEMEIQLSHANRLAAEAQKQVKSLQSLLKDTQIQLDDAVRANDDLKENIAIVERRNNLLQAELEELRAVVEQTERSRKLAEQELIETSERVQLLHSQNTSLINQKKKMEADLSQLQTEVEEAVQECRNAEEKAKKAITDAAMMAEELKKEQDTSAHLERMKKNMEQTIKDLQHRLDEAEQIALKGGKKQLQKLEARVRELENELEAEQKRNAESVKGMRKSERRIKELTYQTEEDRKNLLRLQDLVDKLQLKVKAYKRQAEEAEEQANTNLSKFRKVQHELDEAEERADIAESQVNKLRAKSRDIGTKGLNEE
Sequence of bovine cardiac myosin (P85100 whole entry partner): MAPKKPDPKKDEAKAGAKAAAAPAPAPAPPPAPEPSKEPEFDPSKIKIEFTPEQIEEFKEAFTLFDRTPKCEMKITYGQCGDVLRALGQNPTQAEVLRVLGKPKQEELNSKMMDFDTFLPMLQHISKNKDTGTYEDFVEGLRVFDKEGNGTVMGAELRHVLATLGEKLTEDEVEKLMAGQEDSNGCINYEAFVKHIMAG
Sequence of bovine cardiac myosin (Q3SZE5 whole entry partner): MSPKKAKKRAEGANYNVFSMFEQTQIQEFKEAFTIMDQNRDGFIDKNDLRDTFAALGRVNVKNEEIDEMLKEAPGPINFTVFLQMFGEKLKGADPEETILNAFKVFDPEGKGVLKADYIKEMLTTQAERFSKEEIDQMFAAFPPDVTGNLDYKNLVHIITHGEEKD
With `COc1c(F)cccc1S(=O)(=O)C(F)(F)C1CCN(C(=O)Nc2ccnnc2)CC1` [Compound 61, 4-(difluoro((3-fluoro-2-methoxyphenyl)sulfonyl)methyl)-N-(pyridazin-4-yl)piperidine-1-carboxamide], the “Myosin Activation (AC20)” value was “++ (++ represents myosin activation value AC20 from 2 μM-5 μM)”. The same measure for `Cn1cc(S(=O)(=O)C(C)(F)C2CCN(C(=O)Nc3ccon3)CC2)c(C(F)(F)F)n1` (stereo not shown) [Compound 16, 4-(1-Fluoro-1-((1-methyl-3-(trifluoromethyl)-1H-pyrazol-4-yl)sulfonyl)ethyl)-N-(isoxazol-3-yl)piperidine-1-carboxamide]: “++ (++ represents myosin activation value AC20 from 2 μM-5 μM)”. The same measure for `Cc1ccccc1S(=O)(=O)C(C)(C)C1CCN(C(=O)Nc2ccncc2)CC1` [Compound 212, N-(pyridin-4-yl)-4-(2-(o-tolylsulfonyl)propan-2-yl)piperidine-1-carboxamide]: “+++ (+++ represents myosin activation value AC20 < 2 μM)”. The same measure for `Cn1nc(C(F)(F)F)cc1S(=O)(=O)C(C)(F)C1CCN(C(=O)Nc2ccc(F)nc2)CC1` (stereo not shown) [Compound 252, 4-(1-fluoro-1-((1-methyl-3-(trifluoromethyl)-1H-pyrazol-5-yl)sulfonyl)ethyl)-N-(6-fluoropyridin-3-yl)piperidine-1-carboxamide]: “++ (++ represents myosin activation value AC20 from 2 μM-5 μM)”.

In the case of `O=C(Nc1ccnnc1)N1CCC(C(F)(F)S(=O)(=O)c2cnn3ccccc23)CC1` [Compound 93, 4-(difluoro(pyrazolo[1,5-a]pyridin-3-ylsulfonyl)methyl)-N-(pyridazin-4-yl)piperidine-1-carboxamide], the “Myosin Activation (AC20)” value was “++ (++ represents myosin activation value AC20 from 2 μM-5 μM)”. The same measure for `COc1ccc(S(=O)(=O)C(C)(F)C2CCN(C(=O)Nc3ccnnc3)CC2)cn1` (stereo not shown) [Compound 9, 4-(1-fluoro-1-((6-methoxypyridin-3-yl)sulfonyl)ethyl)-N-(pyridazin-4-yl)piperidine-1-carboxamide]: “+++ (+++ represents myosin activation value AC20 < 2 μM)”.

`Cn1cc(S(=O)(=O)C(C)(F)C2CCN(C(=O)Nc3ccnnc3)CC2)c(C(F)(F)F)n1` (stereo not shown) [Compound 281, 4-(1-fluoro-1-((1-methyl-3-(trifluoromethyl)-1H-pyrazol-4-yl)sulfonyl)ethyl)-N-(pyridazin-4-yl)piperidine-1-carboxamide]: the “Myosin Activation (AC20)” value is reported as “++ (++ represents myosin activation value AC20 from 2 μM-5 μM)”. The same measure for `Cn1nccc1S(=O)(=O)C(C)(C)C1CCN(C(=O)Nc2ccon2)CC1` [Compound 128, N-(isoxazol-3-yl)-4-(2-((1-methyl-1H-pyrazol-5-yl)sulfonyl)propan-2-yl)piperidine-1-carboxamide]: “++ (++ represents myosin activation value AC20 from 2 μM-5 μM)”.

Regarding `Cc1ccc(NC(=O)N2CCC(C(C)(C)S(=O)(=O)c3cc(C(F)F)nn3C)CC2)cn1` [Compound 107, 4-(2-((3-(difluoromethyl)-1-methyl-1H-pyrazol-5-yl)sulfonyl)propan-2-yl)-N-(6-methylpyridin-3-yl)piperidine-1-carboxamide], the “Myosin Activation (AC20)” value is reported as “++ (++ represents myosin activation value AC20 from 2 μM-5 μM)”. The same measure for `Cn1nccc1S(=O)(=O)C(C)(F)C1CCN(C(=O)Nc2cccnc2)CC1` (stereo not shown) [Compound 227, 4-(1-fluoro-1-((1-methyl-1H-pyrazol-5-yl)sulfonyl)ethyl)-N-(pyridin-3-yl)piperidine-1-carboxamide]: “+ (+ represents myosin activation value AC20 > 5 μM)”; for `Cn1nccc1S(=O)(=O)C(C)(C)C1CCN(C(=O)Nc2ccc(F)nc2)CC1` [Compound 124, N-(6-fluoropyridin-3-yl)-4-(2-((1-methyl-1H-pyrazol-5-yl)sulfonyl)propan-2-yl)piperidine-1-carboxamide]: “+ (+ represents myosin activation value AC20 > 5 μM)”; for `Cn1cc(S(=O)(=O)C(C)(C)C2CCN(C(=O)Nc3ccc(F)nc3)CC2)c(C(F)(F)F)n1` [Compound 111, N-(6-fluoropyridin-3-yl)-4-(2-((1-methyl-3-(trifluoromethyl)-1H-pyrazol-4-yl)sulfonyl)propan-2-yl)piperidine-1-carboxamide]: “++ (++ represents myosin activation value AC20 from 2 μM-5 μM)”.

As for `CC(C)(C1(F)CCN(C(=O)Nc2ccnnc2)CC1)S(=O)(=O)c1cccc(F)c1` [Compound 30, 4-Fluoro-4-(2-((3-fluorophenyl)sulfonyl)propan-2-yl)-N-(pyridazin-4-yl)piperidine-1-carboxamide], the “Myosin Activation (AC20)” value is “++ (++ represents myosin activation value AC20 from 2 μM-5 μM)”. As for `Cc1cc(S(=O)(=O)C(F)(F)C2CCN(C(=O)Nc3ccnnc3)CC2)n(C(C)C)n1` [Compound 87, 4-(difluoro((1-isopropyl-3-methyl-1H-pyrazol-5-yl)sulfonyl)methyl)-N-(pyridazin-4-yl)piperidine-1-carboxamide], the entry is “+ (+ represents myosin activation value AC20 > 5 μM)”; as for `CC(F)(C1CCN(C(=O)Nc2ccon2)CC1)S(=O)(=O)c1cccc(F)c1` (stereo not shown) [Compound 234, 4-(1-fluoro-1-((3-fluorophenyl)sulfonyl)ethyl)-N-(isoxazol-3-yl)piperidine-1-carboxamide], “+++ (+++ represents myosin activation value AC20 < 2 μM)”; as for `Cn1nccc1NC(=O)N1CCC(C(C)(C)S(=O)(=O)c2cccc(F)c2)CC1` [Compound 136, 4-(2-((3-fluorophenyl)sulfonyl)propan-2-yl)-N-(1-methyl-1H-pyrazol-5-yl)piperidine-1-carboxamide], “+ (+ represents myosin activation value AC20 > 5 μM)”. The same measure for `C[C@](F)(C1CCN(C(=O)Nc2ccnc(C#N)c2)CC1)S(=O)(=O)c1cccc(F)c1` [Compound 293, (R)-N-(2-cyanopyridin-4-yl)-4-(1-fluoro-1-((3-fluorophenyl)sulfonyl)ethyl)piperidine-1-carboxamide]: “+ (+ represents myosin activation value AC20 > 5 μM)”; for `O=C(Nc1ccnnc1)N1CCC(C(F)(F)S(=O)(=O)c2ccc(O)cc2Cl)CC1` [Compound 92, 4-(((2-chloro-4-hydroxyphenyl)sulfonyl)difluoromethyl)-N-(pyridazin-4-yl)piperidine-1-carboxamide]: “++ (++ represents myosin activation value AC20 from 2 μM-5 μM)”. Take `Cn1cc(S(=O)(=O)C(C)(F)C2CCN(C(=O)Nc3ccnnc3)CC2)c(C(F)F)n1` (stereo not shown) [Compound 276, 4-(1-((3-(difluoromethyl)-1-methyl-1H-pyrazol-4-yl)sulfonyl)-1-fluoroethyl)-N-(pyridazin-4-yl)piperidine-1-carboxamide]: the “Myosin Activation (AC20)” value is “+++ (+++ represents myosin activation value AC20 < 2 μM)”. The same measure for `C[C@](F)(C1CCN(C(=O)Nc2ccon2)CC1)S(=O)(=O)c1cccc(F)c1` [Compound 284, (R)-4-(1-fluoro-1-((3-fluorophenyl)sulfonyl)ethyl)-N-(isoxazol-3-yl)piperidine-1-carboxamide]: “+++ (+++ represents myosin activation value AC20 < 2 μM)”. The same measure for `Cn1cc(S(=O)(=O)[C@@](C)(F)C2CCN(C(=O)Nc3cn[nH]c3)CC2)c(C(F)F)n1` [Compound 289, (R)-4-(1-((3-(difluoromethyl)-1-methyl-1H-pyrazol-4-yl)sulfonyl)-1-fluoroethyl)-N-(1H-pyrazol-4-yl)piperidine-1-carboxamide]: “++ (++ represents myosin activation value AC20 from 2 μM-5 μM)”; for `CC(C)(C1CCN(C(=O)Nc2ccnnc2)CC1)S(=O)(=O)c1ccccc1C(F)(F)F` [Compound 195, N-(pyridazin-4-yl)-4-(2-((2-(trifluoromethyl)phenyl)sulfonyl)propan-2-yl)piperidine-1-carboxamide]: “++ (++ represents myosin activation value AC20 from 2 μM-5 μM)”. In the case of `Cn1cnc(S(=O)(=O)C2(C3CCN(C(=O)Nc4ccnnc4)CC3)CCC2)c1` [Compound 173, 4-(1-((1-methyl-1H-imidazol-4-yl)sulfonyl)cyclobutyl)-N-(pyridazin-4-yl)piperidine-1-carboxamide], the “Myosin Activation (AC20)” value is listed as “+ (+ represents myosin activation value AC20 > 5 μM)”. The same measure for `Cn1nccc1S(=O)(=O)C1(C2CCN(C(=O)Nc3cnns3)CC2)CCC1` [Compound 175, 4-(1-((1-methyl-1H-pyrazol-5-yl)sulfonyl)cyclobutyl)-N-(1,2,3-thiadiazol-5-yl)piperidine-1-carboxamide]: “+++ (+++ represents myosin activation value AC20 < 2 μM)”; for `CC(F)(C1CCN(C(=O)Nc2ccc(F)nc2)CC1)S(=O)(=O)c1ccc(C#N)cc1` (stereo not shown) [Compound 240, 4-(1-((4-cyanophenyl)sulfonyl)-1-fluoroethyl)-N-(6-fluoropyridin-3-yl)piperidine-1-carboxamide]: “++ (++ represents myosin activation value AC20 from 2 μM-5 μM)”; for `O=C(Nc1ccnnc1)N1CCC(C(F)(F)S(=O)(=O)c2cccc3c2COC3)CC1` [Compound 71, 4-(((1,3-dihydroisobenzofuran-4-yl)sulfonyl)difluoromethyl)-N-(pyridazin-4-yl)piperidine-1-carboxamide]: “++ (++ represents myosin activation value AC20 from 2 μM-5 μM)”. As for `C[C@@](F)(C1CCN(C(=O)Nc2ccon2)CC1)S(=O)(=O)c1cccc(F)c1` [Compound 285, (S)-4-(1-fluoro-1-((3-fluorophenyl)sulfonyl)ethyl)-N-(isoxazol-3-yl)piperidine-1-carboxamide], the entry is “+ (+ represents myosin activation value AC20 > 5 μM)”. The same measure for `Cn1nc(C(F)(F)F)cc1S(=O)(=O)C(C)(F)C1CCN(C(=O)Nc2ccnc(F)c2)CC1` (stereo not shown) [Compound 251, 4-(1-fluoro-1-((1-methyl-3-(trifluoromethyl)-1H-pyrazol-5-yl)sulfonyl)ethyl)-N-(2-fluoropyridin-4-yl)piperidine-1-carboxamide]: “++ (++ represents myosin activation value AC20 from 2 μM-5 μM)”.
